Test [1] has as its system GP7TB cells. As to the kind of experiment: Growth inhibition (cell number), GP7TB. It is filed as cell-based, rat. Conditions: for Amount of Cells: GP7TB, mean of triplicate; for IC50: Rattus norvegicus, GP7TB cells, read-out: 50% inhibition concentration (IC50). On the procedure: Rat liver cancer cell line GP7TB and human liver cancer cell line Huh-7 and HepG2 at 10^4 cells each were seeded in individual wells of a 96-well cultural plate. After overnight incubation, different concentrations of the extracts were added therein for 24 hours. Subsequently, the medium was discarded, and the medium with 20 μl/ml of MTS was added for 1 hour. Since MTS reagent contains 3-(4,5-dimethylhiazol-2-yl)-5-(3-carboxymethoxyphenyl)-2-(4-sulfophenyl)-2H-tetrazolium, which could be metabolized by NADH or NADPH dehydrogenase in living cells to a formazan product, cellular survival rates could be estimated from different readings at 490 nm.
The experiments were performed in triplicate and the results were performed by average calculation.

A further test concerns Liver, Hep 3B. As to the kind of experiment: alamarBlue cancer cell inhibition, Hep 3B. It is filed as cell-based. Conditions: 72 hours. As to the method: (§1) Each suspension of various cancer cell lines was inoculated in a 96-well cultural plate and incubated at 37° C. under 5% carbon dioxide for 24 hours. Then, 100 μL of medium and 2 μl of different concentrations (100, 10, 1, 0.1 and 0.01 μM) of dichotomin (PK-22-1) were added therein. In addition, the cancer cells treated with a control drug, mitomycin, were incubated and treated in the same manner. After 72 hours of incubation, 20 μl of alamarBlue reagent was added into each well and the cells were incubated for another 6 hours. Cell densities were detected with a fluorescence detector, GENios equipped with a microreader, using an exciting wavelength of 530 nm and an emission wavelength of 590 nm. The IC50 value means the concentration at which the experimental drug reduces the cell numbers by 50% at the end of the experiment. This value represents the inhibition activity of the test drugs.
For orientation: Alamar Blue is a resazurin reagent that responds to reducing activity.

In the next test the test system is Lung, A549. The test can be described thus: alamarBlue cancer cell inhibition, A549. Conditions: A549, 72 hours. The test is classed as cell-based. As to the method: as §1
The next test concerns Colon, HT-29. As to the kind of experiment: alamarBlue cancer cell inhibition, HT-29. It is filed as cell-based. As to conditions: HT-29, 72 hours. As to the method:
as §1

Test [2] deals with GP7TB cells. As to the kind of experiment: In vivo growth inhibition of rat liver tumor by intratumoral injection. As to the method:
The back of each rat was injected subcutaneously with 3×10^6 cells of GP7TB cells. The tumor grows up to 0.3 cm in diameter after about one week. A single dose of dichotomin (PK-22-1, 2.0 mg/kg) or the control buffer (PBS) was directly injected into the tumor once every day for 8 consecutive days. The tumor size was measured, and the cancer cell growth inhibition effects of the control group and dichotomin treated group were compared.

Test [3] has as its system GP7TB cells. As to the kind of experiment: Ex-vivo anti-tumor experiment: pretreated GP7TB cells grafted in F344 rats. As to conditions: GP7TB cells pretreated 12.5 μg/ml 24 hours; 5×10^6 cells S.C.; after three weeks. Further details: species or system rat. On the procedure:
GP7TB cells (3×10^6 cells each) were incubated in several 10-cm cultural dishes and treated with dichotomin (PK-22-1) or the extract without dichotomin (PK-22-3) at a concentration of 12.5 μg/ml for 24 hours. These cells were collected. GP7TB cells, PK-22-1-treated GP7TB cells, and PK-22-3-treated GP7TB cells (5×10^6 cells each) were separately injected subcutaneously at three different locations on the back of each F344 rat. […] The tumor sizes of rats inoculated with GP7TB cells treated with the extract PK-22-3 without dichotomin were the same as those of rats treated with GP7TB cells (control group).

Test [4] relates to GP7TB cells. As to the kind of experiment: Nuclear DNA fragmentation (agarose gel electrophoresis), GP7TB. It is filed as cell-based, rat. As to conditions: 12.5 μg/ml, 48 hours. As to the method: To understand the GP7TB cell growth inhibition mechanism of the active components and the extracts, GP7TB cells were treated with the extracts and dichotomin at a constant concentration of 12.5 μg/ml for 48 hours. The cellular DNA was extracted and analyzed with agarose gel electrophoresis. […] Therefore, it could be concluded that dichotomin could induce apoptosis of the abovementioned cell lines.

Another test deals with HepG2 cells. The test can be described thus: Nuclear DNA fragmentation (agarose gel electrophoresis), HepG2. Conditions: HepG2, 12.5 μg/ml, 48 hours. The test is classed as cell-based, human.

Read-outs that look alike come from different tables or passages of the source.

Turning to `COc1cccc2c1C(=O)c1c(O)c3c(c(O)c1C2=O)C[C@@](O)(C(=O)CO)C[C@@H]3O[C@H]1C[C@H](N)[C@H](O)[C@H](C)O1` [Adriamycin], the “Amount of Cells” value is recorded as 7.80 × 10^4 cells/ml in the test on GP7TB cells [1] (1 μg/ml); 2.30 × 10^4 cells/ml in the test with GP7TB cells [1] (2 μg/ml); 2.00 × 10^4 cells/ml in the test with GP7TB cells [1] (4 μg/ml); 3.00 × 10^4 cells/ml with GP7TB cells [1] (6 μg/ml); 2.50 × 10^4 cells/ml in the test with GP7TB cells [1] (8 μg/ml); 2.30 × 10^4 cells/ml with GP7TB cells [1] (10 μg/ml). Moreover, in the test on GP7TB cells [1] (12 μg/ml), the “Amount of Cells” value was 1.60 × 10^4 cells/ml. Also, the IC50 with GP7TB cells [1] (by mass) is 1.54 µg/mL; in the test with GP7TB cells [1] (molar), 2.66 µM.

For the compound `CO[C@@]12[C@H](COC(N)=O)C3=C(C(=O)C(C)=C(N)C3=O)N1C[C@@H]1N[C@@H]12` [Mitomycin, reference compound], the IC50 worked out at 0.04 µM in the test on Liver, Hep 3B (Homo sapiens, Hep3B); 0.16 µM in the test on Lung, A549 (Homo sapiens); 0.33 µM in the test on Colon, HT-29 (Homo sapiens).

In the case of “(25R)-26-O-beta-D-glucopyranosyl-22-hydroxy-5-ene-furostan-3beta, 26-diol-3-O-alpha-L-rhamnopyranosyl-(1→4)-alpha-L-rhamnopyranosyl-(1→4)-[alpha-L-rhamnopyranosyl-(1→2)]-beta-D-glucopyranoside [PK-22-1]”, the “Tumor volume after injection (Day 8)” value in the test on GP7TB cells [2] (2.0 mg/kg into the tumor once daily for 8 days, volume = 0.52 × length × width × height) is reported as “(0.692 cm^3)”. The “Apoptosis of cancer cells in tumor (pathological section)” value in the test on GP7TB cells [2] (2.0 mg/kg intratumoral, 8 days) was “exhibited apoptosis”. For the same compound, in the test on GP7TB cells [2] (2.0 mg/kg intratumoral, 8 days, vs PBS), the “Tumor size relative to the control group” value is recorded as “only half the size”. Also, the “Tumor volume before injection (Day 0)” value in the test with GP7TB cells [2] (baseline, volume = 0.52 × length × width × height) is reported as “(0.142 cm^3)”. In addition, the “Growth (folds)” value in the test on GP7TB cells [2] (tumor volume Day 8 vs Day 0, 2.0 mg/kg intratumoral, PBS control 9.26) is 4.87 folds. In addition, in the test with GP7TB cells [3], the “Rats that did not form any tumor” value is “six rats of the nine”. For the same compound, in the test with GP7TB cells [3], the “Tumor size relative to tumors from untreated GP7TB cells (control group)” value is reported as “one sixth”. Besides, the IC50 in the test on Liver, Hep 3B worked out at 8.5 µM; with Lung, A549, 0.84 µM; in the test with Colon, HT-29, 7.3 µM. Besides, the “Nuclear DNA fragmentation” value in the test with GP7TB cells [4] and in the test on HepG2 cells was “most notable effects” in each case. Also, the “Amount of Cells” value was 1.30 × 10^5 cells/ml with GP7TB cells [1] (1 μg/ml); 4.60 × 10^4 cells/ml with GP7TB cells [1] (2 μg/ml); 2.00 × 10^4 cells/ml in the test on GP7TB cells [1] (4 μg/ml); 1.10 × 10^4 cells/ml with GP7TB cells [1] (6 μg/ml); 5.00 × 10^4 cells/ml in the test with GP7TB cells [1] (8 μg/ml); 3.00 × 10^3 cells/ml in the test on GP7TB cells [1] (10 μg/ml). For the same compound, the “Amount of Cells” value in the test on GP7TB cells [1] (12 μg/ml) is listed as 1.60 × 10^3 cells/ml.

The record behind these values is US20100179098A1, “FUROST-5-ENE-3, 22, 26-TRIOL GLYCOSIDE COMPOUND FOR PREVENTING AND TREATMENT CANCER” (priority 2006, published 2010).
